This is an account of results in PMC5218480 (PLoS ONE, 2017).

The test relates to MV-4-11 cells. Put plainly: Gene expression microarray analysis (Affymetrix PrimeView) and GSEA. The test is classed as cell-based, human. Also noted: RFU PODN (11730768_x_at) / Fold change /veh PODN (11730768_x_at) / RFU LINC00158 (11744669_a_at) / Fold change /veh LINC00158 (11744669_a_at) / RFU DUSP10 (11751237_a_at) / Fold change /veh DUSP10 (11751237_a_at) / RFU ID3 (11757404_x_at) / Fold change /veh ID3 (11757404_x_at) / RFU PLEKHG5 (11737974_s_at) / Fold change /veh PLEKHG5 (11737974_s_at) / RFU LRRC4B (11730491_at) / Fold change /veh LRRC4B (11730491_at) / RFU GIMAP4 (11747438_a_at) / Fold change /veh GIMAP4 (11747438_a_at) / RFU KRT8 (11758183_x_at) / Fold change /veh KRT8 (11758183_x_at) / RFU CNN1 (11734310_a_at) / Fold change /veh CNN1 (11734310_a_at) / RFU VPS37D (11726825_at) / Fold change /veh VPS37D (11726825_at) / RFU C10orf10 (11716522_x_at) / Fold change /veh C10orf10 (11716522_x_at) / RFU KIR2DL2 /// KIR2DL4 /// KIR2DL5A /// KIR2DL5B /// KIR2DS1 /// KIR2DS2 /// KIR2DS3 /// KIR2DS4 /// KIR3DL3 /// KIR3DL3 /// KIR3DS1 (11738374_at) / Fold change /veh KIR2DL2 /// KIR2DL4 /// KIR2DL5A /// KIR2DL5B /// KIR2DS1 /// KIR2DS2 /// KIR2DS3 /// KIR2DS4 /// KIR3DL3 /// KIR3DL3 /// KIR3DS1 (11738374_at) / RFU C1QL1 (11718748_at) / Fold change /veh C1QL1 (11718748_at) / RFU TMPRSS4 (11747572_a_at) / Fold change /veh TMPRSS4 (11747572_a_at) / RFU HAMP (11756126_x_at) / Fold change /veh HAMP (11756126_x_at) / RFU RNFT2 (11725882_a_at) / Fold change /veh RNFT2 (11725882_a_at) / RFU NR4A2 (11747474_a_at) / Fold change /veh NR4A2 (11747474_a_at) / RFU ABCC12 (11746883_a_at) / Fold change /veh ABCC12 (11746883_a_at) / RFU TMEM136 (11760407_x_at) / Fold change /veh TMEM136 (11760407_x_at) / RFU CLDN22 /// WWC2 (11732394_at) / Fold change /veh CLDN22 /// WWC2 (11732394_at) / RFU HLA-DPB1 (11760878_x_at) / Fold change /veh HLA-DPB1 (11760878_x_at) / RFU SPINT1 (11716480_a_at) / Fold change /veh SPINT1 (11716480_a_at) / RFU GAP43 (11754022_s_at) / Fold change /veh GAP43 (11754022_s_at) / RFU A4GNT (11735810_at) / Fold change /veh A4GNT (11735810_at) / RFU PRB3 (11715151_x_at) / Fold change /veh PRB3 (11715151_x_at) / RFU TUBB4B (11761932_at) / Fold change /veh TUBB4B (11761932_at) / RFU CAPN14 (11732068_a_at) / Fold change /veh CAPN14 (11732068_a_at) / RFU TMCC2 (11721928_a_at) / Fold change /veh TMCC2 (11721928_a_at) / RFU IRGQ (11745062_a_at) / Fold change /veh IRGQ (11745062_a_at) / RFU FAM174B (11720279_a_at) / Fold change /veh FAM174B (11720279_a_at) / RFU TMPRSS4 (11748680_a_at) / Fold change /veh TMPRSS4 (11748680_a_at) / RFU FAM212B (11763350_a_at) / Fold change /veh FAM212B (11763350_a_at) / RFU PLEKHG5 (11743358_a_at) / Fold change /veh PLEKHG5 (11743358_a_at) / RFU ZSCAN30 (11745921_a_at) / Fold change /veh ZSCAN30 (11745921_a_at) / RFU CMKLR1 (11741424_a_at) / Fold change /veh CMKLR1 (11741424_a_at) / RFU LOC101060620 /// MAPK8IP1 (11723275_at) / Fold change /veh LOC101060620 /// MAPK8IP1 (11723275_at) / RFU SPTSSB (11747773_x_at) / Fold change /veh SPTSSB (11747773_x_at) / RFU PRSS12 (11739890_at) / Fold change /veh PRSS12 (11739890_at) / RFU BIN1 (11741810_x_at) / Fold change /veh BIN1 (11741810_x_at) / RFU WNT11 (11732464_a_at) / Fold change /veh WNT11 (11732464_a_at) / RFU C10orf10 (11716521_a_at) / Fold change /veh C10orf10 (11716521_a_at) / RFU C5orf56 (11738089_at) / Fold change /veh C5orf56 (11738089_at) / RFU CYB561 (11721691_x_at) / Fold change /veh CYB561 (11721691_x_at) / RFU ANKRD19P (11752326_a_at) / Fold change /veh ANKRD19P (11752326_a_at) / RFU OR2T12 /// OR2T33 /// OR2T8 (11738714_s_at) / Fold change /veh OR2T12 /// OR2T33 /// OR2T8 (11738714_s_at) / RFU VCAN (11748164_a_at) / Fold change /veh VCAN (11748164_a_at) / RFU JSRP1 (11732532_at) / Fold change /veh JSRP1 (11732532_at) / RFU KRTAP10-11 (11738290_x_at) / Fold change /veh KRTAP10-11 (11738290_x_at) / RFU MYO3A (11730013_a_at) / Fold change /veh MYO3A (11730013_a_at) / RFU EBF3 (11725865_a_at) / Fold change /veh EBF3 (11725865_a_at) / RFU CAMK2N1 (11719241_x_at) / Fold change /veh CAMK2N1 (11719241_x_at) / RFU C5orf56 (11738088_a_at) / Fold change /veh C5orf56 (11738088_a_at) / RFU OLFML3 (11715873_a_at) / Fold change /veh OLFML3 (11715873_a_at) / RFU LOC100653217 /// NTM (11731650_a_at) / Fold change /veh LOC100653217 /// NTM (11731650_a_at) / RFU MAPK11 (11762145_a_at) / Fold change /veh MAPK11 (11762145_a_at) / RFU FIZ1 (11724087_x_at) / Fold change /veh FIZ1 (11724087_x_at) / RFU OASL (11726364_x_at) / Fold change /veh OASL (11726364_x_at) / RFU SOX15 (11748057_x_at) / Fold change /veh SOX15 (11748057_x_at) / RFU CD79A (11719716_a_at) / Fold change /veh CD79A (11719716_a_at) / RFU HIST1H1D (11736915_at) / Fold change /veh HIST1H1D (11736915_at) / RFU CASKIN2 (11723855_a_at) / Fold change /veh CASKIN2 (11723855_a_at) / RFU LOC730098 (11760151_x_at) / Fold change /veh LOC730098 (11760151_x_at) / RFU OR4N2 (11742367_at) / Fold change /veh OR4N2 (11742367_at) / RFU PRRT2 (11749266_a_at) / Fold change /veh PRRT2 (11749266_a_at) / RFU SNX32 (11753110_a_at) / Fold change /veh SNX32 (11753110_a_at) / RFU CDHR5 (11726645_a_at) / Fold change /veh CDHR5 (11726645_a_at) / RFU RCAN1 (11760418_a_at) / Fold change /veh RCAN1 (11760418_a_at) / RFU FAM167A (11723789_a_at) / Fold change /veh FAM167A (11723789_a_at) / RFU FAM26E (11764081_at) / Fold change /veh FAM26E (11764081_at) / RFU ISYNA1 (11749810_s_at) / Fold change /veh ISYNA1 (11749810_s_at) / RFU ACY1 (11761880_at) / Fold change /veh ACY1 (11761880_at) / RFU 11764098_at / Fold change /veh 11764098_at / RFU SAMD14 (11745864_x_at) / Fold change /veh SAMD14 (11745864_x_at) / RFU NPB (11741838_a_at) / Fold change /veh NPB (11741838_a_at) / RFU TMPRSS6 (11731388_a_at) / Fold change /veh TMPRSS6 (11731388_a_at) / RFU KRTAP10-2 (11738614_at) / Fold change /veh KRTAP10-2 (11738614_at) / RFU ARHGAP8 /// PRR5-ARHGAP8 (11727945_x_at) / Fold change /veh ARHGAP8 /// PRR5-ARHGAP8 (11727945_x_at) / RFU KRTAP5-7 /// NADSYN1 (11734609_at) / Fold change /veh KRTAP5-7 /// NADSYN1 (11734609_at) / RFU RASL12 (11751679_a_at) / Fold change /veh RASL12 (11751679_a_at) / RFU CDKN2B (11736163_a_at) / Fold change /veh CDKN2B (11736163_a_at) / RFU PRF1 (11729649_at) / Fold change /veh PRF1 (11729649_at) / RFU, ZNF638 /// ZNF638-IT1 / Fold change vs veh, ZNF638 /// ZNF638-IT1 / RFU, PANK3 / Fold change vs veh, PANK3 / RFU, SH3YL1 / Fold change vs veh, SH3YL1 / RFU, ZEB2 / Fold change vs veh, ZEB2 / RFU, NRIP1 / Fold change vs veh, NRIP1 / RFU, PTTG1IP / Fold change vs veh, PTTG1IP / RFU, CAPN2 / Fold change vs veh, CAPN2 / RFU, MED14 / Fold change vs veh, MED14 / RFU, SNORA58 / Fold change vs veh, SNORA58 / RFU, C1orf63 / Fold change vs veh, C1orf63 / RFU, LRRFIP1 / Fold change vs veh, LRRFIP1 / RFU, NDUFAF7 / Fold change vs veh, NDUFAF7 / RFU, SLC12A2 / Fold change vs veh, SLC12A2 / RFU, IBTK / Fold change vs veh, IBTK / RFU, ESF1 / Fold change vs veh, ESF1 / Fold change vs veh, TMEM50B / RFU, TAOK1 / Fold change vs veh, TAOK1 / RFU, ACBD3 / Fold change vs veh, ACBD3 / RFU, TMA16 / Fold change vs veh, TMA16 / RFU, RWDD3 / Fold change vs veh, RWDD3 / RFU, BCAT1 / Fold change vs veh, BCAT1 / RFU, EDEM3 / Fold change vs veh, EDEM3 / RFU, TMEM33 / Fold change vs veh, TMEM33 / RFU, WDR75 / Fold change vs veh, WDR75 / RFU, AHCTF1 / Fold change vs veh, AHCTF1 / RFU, TFRC / Fold change vs veh, TFRC / RFU, ZDHHC17 / Fold change vs veh, ZDHHC17 / RFU, NOM1 / Fold change vs veh, NOM1 / RFU, ARL8B / Fold change vs veh, ARL8B / RFU, ZBTB11 / Fold change vs veh, ZBTB11 / RFU, TAMM41 / Fold change vs veh, TAMM41 / RFU, KIAA1704 /// LOC100996395 / Fold change vs veh, KIAA1704 /// LOC100996395 / RFU, ING1 / Fold change vs veh, ING1 / RFU, TRMT61B / Fold change vs veh, TRMT61B / RFU, FUBP3 / Fold change vs veh, FUBP3 / RFU, TP53 / Fold change vs veh, TP53 / RFU, TNKS2 / Fold change vs veh, TNKS2 / RFU, ZFP14 / Fold change vs veh, ZFP14 / RFU, ACTR2 / Fold change vs veh, ACTR2 / RFU, PPP3R1 / Fold change vs veh, PPP3R1 / RFU, PIK3R1 / Fold change vs veh, PIK3R1 / RFU, HNRNPA1 / Fold change vs veh, HNRNPA1 / RFU, RNF170 / Fold change vs veh, RNF170 / RFU, ZNF28 / Fold change vs veh, ZNF28 / RFU, RNGTT / Fold change vs veh, RNGTT / RFU, OGT / Fold change vs veh, OGT / RFU, BRD1 / Fold change vs veh, BRD1 / RFU, MARS / Fold change vs veh, MARS / RFU, ZNF655 / Fold change vs veh, ZNF655 / RFU, FAHD1 / Fold change vs veh, FAHD1 / RFU, BDP1 / Fold change vs veh, BDP1 / RFU, LRRCC1 / Fold change vs veh, LRRCC1 / RFU, ARID1A / Fold change vs veh, ARID1A / RFU, ZNF146 / Fold change vs veh, ZNF146 / RFU, ZNF330 / Fold change vs veh, ZNF330 / RFU, GPN3 / Fold change vs veh, GPN3 / RFU, C9orf123 / Fold change vs veh, C9orf123 / RFU, N4BP2L2 / Fold change vs veh, N4BP2L2 / RFU, ARFIP1 / Fold change vs veh, ARFIP1 / RFU, FAM179B / Fold change vs veh, FAM179B / RFU, BCL10 / Fold change vs veh, BCL10 / RFU, UHRF1BP1L / Fold change vs veh, UHRF1BP1L / RFU, BET1 / Fold change vs veh, BET1 / RFU, CNOT2 / Fold change vs veh, CNOT2 / RFU, ZNF268 / Fold change vs veh, ZNF268 / Fold change vs veh, ZNF507 / RFU, DGCR2 / Fold change vs veh, DGCR2 / RFU, WDSUB1 / Fold change vs veh, WDSUB1 / Fold change vs veh, HSP90B1 /// MIR3652 / RFU, ADSS / Fold change vs veh, ADSS / RFU, GK / Fold change vs veh, GK / RFU, ZNF148 / Fold change vs veh, ZNF148 / RFU, TAF9 / Fold change vs veh, TAF9 / RFU, SLC1A5 / Fold change vs veh, SLC1A5 / RFU, SLMO2 / Fold change vs veh, SLMO2 / RFU, ABCC4 / Fold change vs veh, ABCC4 / RFU, LOC101060439 /// RAP1B / Fold change vs veh, LOC101060439 /// RAP1B / RFU, RFX7 / Fold change vs veh, RFX7 / RFU, GTPBP10 / Fold change vs veh, GTPBP10 / RFU, CNEP1R1 / Fold change vs veh, CNEP1R1 / RFU, BIVM-ERCC5 /// ERCC5 / Fold change vs veh, BIVM-ERCC5 /// ERCC5 / RFU, ILF3 / Fold change vs veh, ILF3 / RFU 11762660_at / Fold change /veh 11762660_at / RFU VCAN (11757783_s_at) / Fold change /veh VCAN (11757783_s_at) / RFU DDX43 (11728927_at) / Fold change /veh DDX43 (11728927_at) / RFU KRT8 (11758188_x_at) / Fold change /veh KRT8 (11758188_x_at) / RFU NKD1 (11759106_at) / Fold change /veh NKD1 (11759106_at) / RFU SRD5A1 (11742802_a_at) / Fold change /veh SRD5A1 (11742802_a_at) / RFU TPSAB1 /// TPSB2 (11721975_s_at) / Fold change /veh TPSAB1 /// TPSB2 (11721975_s_at) / RFU GSTM3 (11746129_a_at) / Fold change /veh GSTM3 (11746129_a_at) / RFU IL23R (11737362_x_at) / Fold change /veh IL23R (11737362_x_at) / RFU TMEM51 (11727254_a_at) / Fold change /veh TMEM51 (11727254_a_at) / RFU PIWIL2 (11732686_x_at) / Fold change /veh PIWIL2 (11732686_x_at) / RFU ORM1 (11744905_x_at) / Fold change /veh ORM1 (11744905_x_at) / RFU CCDC152 (11743942_at) / Fold change /veh CCDC152 (11743942_at) / RFU ECM1 (11717891_a_at) / Fold change /veh ECM1 (11717891_a_at) / RFU IL23R (11748794_a_at) / Fold change /veh IL23R (11748794_a_at) / RFU TNFAIP8L3 (11732012_x_at) / Fold change /veh TNFAIP8L3 (11732012_x_at) / RFU MBOAT4 (11741988_at) / Fold change /veh MBOAT4 (11741988_at) / RFU 11764193_at / Fold change /veh 11764193_at / RFU TMEM53 (11763286_at) / Fold change /veh TMEM53 (11763286_at) / RFU MAGEB2 (11727129_at) / Fold change /veh MAGEB2 (11727129_at) / RFU TMEM200A (11744735_a_at) / Fold change /veh TMEM200A (11744735_a_at) / RFU CCDC152 (11751479_a_at) / Fold change /veh CCDC152 (11751479_a_at) / RFU FAM211A (11726209_a_at) / Fold change /veh FAM211A (11726209_a_at) / RFU RGS16 (11746705_a_at) / Fold change /veh RGS16 (11746705_a_at) / RFU VCAN (11755009_s_at) / Fold change /veh VCAN (11755009_s_at) / RFU RHOB (11743442_s_at) / Fold change /veh RHOB (11743442_s_at) / RFU RGS16 (11720943_a_at) / Fold change /veh RGS16 (11720943_a_at) / RFU RGS16 (11720944_at) / Fold change /veh RGS16 (11720944_at) / RFU, VPS4B / Fold change vs veh, VPS4B / RFU, CREB1 / Fold change vs veh, CREB1 / RFU, DNAJC13 / Fold change vs veh, DNAJC13 / RFU, GNAQ / Fold change vs veh, GNAQ / RFU, CDK5R1 / Fold change vs veh, CDK5R1 / RFU, ZRANB3 / Fold change vs veh, ZRANB3 / RFU, CUL4A / Fold change vs veh, CUL4A / RFU, CCNY / Fold change vs veh, CCNY / RFU, UFL1 / Fold change vs veh, UFL1 / RFU, COG3 / Fold change vs veh, COG3 / RFU, DIAPH2 / Fold change vs veh, DIAPH2 / RFU, SKA2 / Fold change vs veh, SKA2 / RFU, AFF3 / Fold change vs veh, AFF3 / RFU, LMF1 / Fold change vs veh, LMF1 / RFU, IPO11 / Fold change vs veh, IPO11 / RFU, DFFB / Fold change vs veh, DFFB / RFU, FOXP1 / Fold change vs veh, FOXP1 / RFU, CARD8 / Fold change vs veh, CARD8 / RFU, STRN3 / Fold change vs veh, STRN3 / RFU, ADK / Fold change vs veh, ADK / RFU, RASSF2 / Fold change vs veh, RASSF2 / RFU, WIPF1 / Fold change vs veh, WIPF1 / RFU, LARP1B / Fold change vs veh, LARP1B / RFU, RASA1 / Fold change vs veh, RASA1 / RFU, RB1 / Fold change vs veh, RB1 / RFU, PPFIA1 / Fold change vs veh, PPFIA1 / RFU, MAT2A / Fold change vs veh, MAT2A / RFU, CCT5 / Fold change vs veh, CCT5 / RFU, WDR92 / Fold change vs veh, WDR92 / RFU, CUX1 / Fold change vs veh, CUX1 / RFU, TTC7A / Fold change vs veh, TTC7A / RFU, TMEM135 / Fold change vs veh, TMEM135 / RFU, DEPTOR / Fold change vs veh, DEPTOR / RFU, CPM / Fold change vs veh, CPM / RFU, DNAJB6 / Fold change vs veh, DNAJB6 / RFU, CACNA2D3 / Fold change vs veh, CACNA2D3 / RFU, DTX4 / Fold change vs veh, DTX4 / RFU, TFCP2 / Fold change vs veh, TFCP2 / RFU, GMCL1 /// GMCL1P1 / Fold change vs veh, GMCL1 /// GMCL1P1 / RFU, AEBP2 / Fold change vs veh, AEBP2 / RFU, SNHG1 /// SNORD22 /// SNORD25 /// SNORD26 /// SNORD27 /// SNORD28 /// SNORD29 /// SNORD31 / Fold change vs veh, SNHG1 /// SNORD22 /// SNORD25 /// SNORD26 /// SNORD27 /// SNORD28 /// SNORD29 /// SNORD31 / Fold change (Aza/veh), C12orf56 (ProbeSet 11735607_a_at) / Fold change (ACY-1035/veh), C12orf56 (ProbeSet 11735607_a_at) / Fold change (Aza/veh), FGFR1OP (ProbeSet 11751329_s_at) / Fold change (ACY-1035/veh), FGFR1OP (ProbeSet 11751329_s_at) / Fold change (Aza/veh), VPS36 (ProbeSet 11739960_a_at) / Fold change (ACY-1035/veh), VPS36 (ProbeSet 11739960_a_at) / RFU SYPL1 (11715823_x_at) / Fold change /veh SYPL1 (11715823_x_at) / RFU IGFBP7 (11715501_s_at) / Fold change /veh IGFBP7 (11715501_s_at) / RFU REEP3 (11722064_at) / Fold change /veh REEP3 (11722064_at) / RFU IGLL1 (11728026_x_at) / Fold change /veh IGLL1 (11728026_x_at): dose or concentration left out as unconfirmed. The note with it: ProbeSet 11731461_x_at; LIST D.

On to `Nc1ncn([C@@H]2O[C@H](CO)[C@@H](O)[C@H]2O)c(=O)n1` [azacitidine], for which the “RFU, CPM” value is reported as 125.18 RFU.
